≈ marks a conversion by molar mass, not a printed value. Where a SMILES comes first, the peptide text is derived from it. [ ]: non-standard residue; d: D form. The star is where a group is joined. Sta = CC(C)C[C@H](N)[C@@H](O)CC(=O)O; Isovaleryl = CC(C)CC(=O)*
Legend:
[1] = test system: T. rubrum NCPF0118; experiment: Metabolic activity (Alamar blue) of T. rubrum exposed to NP213 in dried nail lacquers or PEG4000 formulation; assay type: cell-based, Trichophyton rubrum
Description: NP213 (5 and 10% w/v) was formulated in 50% (v/v) PEG4000. Alternatively, NP213 was dissolved/suspended in the lacquer formulations at concentrations of 0, 5 or 10 % (w/v). 10 µl of each lacquer was applied to the base of a well in a flat-bottomed 96-well plate in triplicate wells and allowed to dry for 90 min. An inoculum of 3 × 10^3 cfu T. rubrum NCPF0118 was prepared in 1 × RPMI-1640 liquid medium and 200 µl was added to all wells containing lacquers and control wells containing no lacquer (growth control). An additional 3 wells per plate contained 200 µl RPMI-1640 liquid medium without inoculum to serve as sterility controls. To each well was added a minimal volume of Alamar blue solution (0.0025% (w/v) final concentration). Antifungal activity was determined based on changes in metabolic activity (due to metabolism of the cell viability indicator Alamar blue). Metabolic activity was monitored by fluorescence (Ex 530 nm/Em 590 nm) every 24 h for up to 168 h.

[2] = test system: T. rubrum NCPF0118; assay type: cell-based, Trichophyton rubrum; details: for effect of protease inhibitor alone on growth: 1 mM PMSF, 1 mg/L Pepstatin A, 10 µM E-64; for effect of protease inhibitor alone on growth / growth inhibition by protease inhibitor alone: 100 µM EDTA; for growth inhibition by protease inhibitor alone: RPMI-1640, 1 mg/L PMSF, 10 µM E64, 1 mg/L pepstatin
Description: (§1) Antifungal susceptibility testing to determine the MIC was conducted by the broth microdilution procedure for filamentous fungi (M38-A2) (Clinical & Laboratory Standards Institute (CLSI). 2008. Reference Method for Broth Dilution Antifungal Susceptibility Testing of Filamentous Fungi; Approved Standard - Second Edition (M38-A2). Clinical and Laboratory Standards Institute, Wayne, PA). This experiment was carried out in triplicate with triplicate samples in each experiment. The proteolytic stability of NP213 was assessed by determining NP213 MIC as described above versus T. rubrum NCPF0118 and T. interdigitale NCPF0335 in the presence of the following protease inhibitors; serine proteases (1 mM phenylmethylsulfonyl fluoride; PMSF), metalloproteases (100 µM ethylenediaminetetraacetic acid; EDTA), aspartyl proteases (1 mg/L Pepstatin A) and cysteine proteases (10 µM trans-epoxysuccinyl-L-leucylamido(4-guanidino)butane; E-64).
(§2) T. rubrum NCPF0118 and T. interdigitale NCPF0335 in RPMI-1640 liquid medium. MIC was determined by the broth microdilution procedure (CLSI, 2008). Metalloprotease inhibitor -100 µM EDTA; Serine protease inhibitor - 1 mg/L PMSF; Cysteine protease inhibitor -10 µM E64; Aspartyl protease inhibitor - 1 mg/L pepstatin.
(§3) Antifungal susceptibility testing was conducted by the broth microdilution procedure as described in CLSI Approved Standard M38-A2. All peptides were dissolved in sterile deionised water (40 mg/ml) and stored at -20° C. until required. All experiments were carried out in triplicate, with triplicate samples in each experiment.

[3] = test system: T. interdigitale NCPF0335; assay type: cell-based; details: for effect of protease inhibitor alone on growth: 1 mM PMSF, 1 mg/L Pepstatin A, 10 µM E-64; for effect of protease inhibitor alone on growth / growth inhibition by protease inhibitor alone: 100 µM EDTA; for growth inhibition by protease inhibitor alone: RPMI-1640, 1 mg/L PMSF, 10 µM E64, 1 mg/L pepstatin
Description: as §1, §2, §3

[4] = test system: Trichophyton rubrum NCPF0118; experiment: Experimental model of dermatophyte nail infection on human nail fragments, colony counts; assay type: cell-based; details: daily application to dorsal side of infected nail; FIG. 15
Description: An experimental model of dermatophyte nail infection was optimized to simulate onychomycosis under laboratory conditions and to test the antifungal efficacy of NP213. As an inert support and to provide a moist atmosphere, sterile water agar plates were prepared in 90-mm Petri dishes (1.5% (w/v) agar in sterile-deionised water). Petri dishes were divided into three sections, and individual pieces of sterile silicone rubber tubing (1-cm diameter; 3-mm height) were placed in each section, allowing the investigation of three nail fragments per plate. This prevented direct contact between the nails and the agar surface or the lid of the Petri dish. Such a setup was necessary because agar contains components that can bind to cationic peptides, including NP213, inhibiting their diffusion and reducing activity. Silicon tubing is permeable to oxygen and carbon dioxide, and its use ensured oxygen access to support fungal growth. Its diameter was sufficiently small to stably support the nail fragments. Uninfected human nails (sourced under ethical approval) were cleaned of all residual skin and debris before cutting to size (approximately four fragments were obtained from an adult great toenail), and their surface area and thickness were determined using a micrometer. […] Samples were plated on potato dextrose agar and incubated at 30° C. for 14 days, and the colonies were counted.

[5] = test system: T. rubrum NCPF0118 and T. interdigitale NCPF0335; experiment: Antifungal susceptibility testing, summary statements for both dermatophytes; assay type: cell-based; details: Example 4 summary
Description: as §1
Antifungal susceptibility testing was carried out as described above, but with the following modifications. RPMI-1640 medium was substituted for 0.5% (w/v) powdered nail, skin keratin or sheep’s wool keratin suspensions in 10 mM sodium phosphate buffer, pH 7.0 containing 0.0025% (w/v) AlamarBlue™ (ThermoFisher Scientific, UK). […]

MIC (mg/L) T.rubrum NCPF0118 [2] [mg/L]	MIC (mg/L) T. interdigitale NPCF0335 [3] [mg/L]	Structure (SMILES)	effect of protease inhibitor alone on growth [2]	growth inhibition by protease inhibitor alone [2]	effect of protease inhibitor alone on growth [3]	growth inhibition by protease inhibitor alone [3]	further results
1000 (≈ 915 µM)	500 (≈ 457 µM)	N=C(N)NCCC[C@@H]1NC(=O)[C@H](CCCNC(=N)N)NC(=O)[C@H](CCCNC(=N)N)NC(=O)[C@H](CCCNC(=N)N)NC(=O)[C@H](CCCNC(=N)N)NC(=O)[C@H](CCCNC(=N)N)NC(=O)[C@H](CCCNC(=N)N)NC1=O [NP213, cyclic R-R-R-R-R-R-R]	–	–	–	–	antifungal activity in Roehm lacquer 1 compared to NP213 in 50% (v/v) PEG4000 ([1]; 5% and 10% (w/v) NP213, metabolic activity up to 168 h, FIG. 1): lower; antifungal activity in Roehm lacquer 2 compared to NP213 in 50% (v/v) PEG4000 ([1]; 5% and 10% (w/v) NP213, metabolic activity up to 168 h, FIG. 2): lower; antifungal activity in Roehm lacquer 3 compared to NP213 in 50% (v/v) PEG4000 ([1]; 5% and 10% (w/v) NP213, metabolic activity up to 168 h, FIG. 3): lower; antifungal activity in Roehm lacquer 4 compared to NP213 in 50% (v/v) PEG4000 ([1]; 5% and 10% (w/v) NP213, metabolic activity up to 168 h, FIG. 4): lower; antifungal activity in Roehm lacquer 5 compared to NP213 in 50% (v/v) PEG4000 ([1]; 5% and 10% (w/v) NP213, metabolic activity up to 168 h, FIG. 5): lower; antifungal activity in Anacor lacquer C compared to NP213 in 50% (v/v) PEG4000 ([1]; 5% and 10% (w/v) NP213, metabolic activity up to 168 h, FIG. 6): lower; antifungal activity in 2d lacquer compared to NP213 in 50% (v/v) PEG4000 ([1]; 10% (w/v) NP213 in 2d lacquer, metabolic activity up to 168 h, FIG. 7): lower; efficacy in the known nail lacquers ([1]; lacquers manufactured by Anacor and Roehm): not effective; MIC (mg/L) T.interdigitale NCPF0335 [3]: 500 mg/L (≈ 457 µM); time from beginning treatment until antifungal effects are seen [4]: ≤ 11 days
–	–	CC(C)CC(=O)N[C@H](C(=O)N[C@H](C(=O)N[C@@H](CC(C)C)[C@@H](O)CC(=O)N[C@@H](C)C(=O)N[C@@H](CC(C)C)[C@@H](O)CC(=O)O)C(C)C)C(C)C [Pepstatin A] (Isovaleryl-VV[Sta]A[Sta]-OH)	no effect on the growth	did not inhibit growth	no effect on the growth	did not inhibit growth	–
–	–	CC(C)C[C@H](NC(=O)[C@@H](O)[C@H](N)Cc1ccccc1)C(=O)O [Bestatin]	–	–	–	–	effect of metalloprotease inhibitor on the anti-fungal effect of the cyclic peptide [5]: enhanced
–	–	O=S(=O)(F)Cc1ccccc1 [PMSF, phenylmethylsulfonyl fluoride]	no effect on the growth	did not inhibit growth	no effect on the growth	did not inhibit growth	–
500 (≈ 640 µM)	1000 (≈ 1280 µM)	N=C(N)NCCC[C@@H]1NC(=O)[C@H](CCCNC(=N)N)NC(=O)[C@H](CCCNC(=N)N)NC(=O)[C@H](CCCNC(=N)N)NC(=O)[C@H](CCCNC(=N)N)NC1=O [NP201, cyclic-5R] (cyclo(RRRRR))	–	–	–	–	–
62.5 (≈ 26.7 µM)	3.9 (≈ 1.66 µM)	N=C(N)NCCC[C@@H]1NC(=O)[C@H](CCCNC(=N)N)NC(=O)[C@H](CCCNC(=N)N)NC(=O)[C@H](CCCNC(=N)N)NC(=O)[C@H](CCCNC(=N)N)NC(=O)[C@H](CCCNC(=N)N)NC(=O)[C@H](CCCNC(=N)N)NC(=O)[C@H](CCCNC(=N)N)NC(=O)[C@H](CCCNC(=N)N)NC(=O)[C@H](CCCNC(=N)N)NC(=O)[C@H](CCCNC(=N)N)NC(=O)[C@H](CCCNC(=N)N)NC(=O)[C@H](CCCNC(=N)N)NC(=O)[C@H](CCCNC(=N)N)NC(=O)[C@H](CCCNC(=N)N)NC1=O [NP203, cyclic 15R]	–	–	–	–	–
–	–	CC(C)C[C@H](NC(=O)[C@H]1O[C@@H]1C(=O)O)C(=O)NCCCCN=C(N)N (relative stereo) [Peptide E-64, trans-epoxysuccinyl-L-leucylamido(4-guanidino)butane]	no effect on the growth	did not inhibit growth	no effect on the growth	did not inhibit growth	–
250 (≈ 146 µM)	15.6 (≈ 9.08 µM)	N=C(N)NCCC[C@@H]1NC(=O)[C@H](CCCNC(=N)N)NC(=O)[C@H](CCCNC(=N)N)NC(=O)[C@H](CCCNC(=N)N)NC(=O)[C@H](CCCNC(=N)N)NC(=O)[C@H](CCCNC(=N)N)NC(=O)[C@H](CCCNC(=N)N)NC(=O)[C@H](CCCNC(=N)N)NC(=O)[C@H](CCCNC(=N)N)NC(=O)[C@H](CCCNC(=N)N)NC(=O)[C@H](CCCNC(=N)N)NC1=O [NP202, cyclic 11 R]	–	–	–	–	–
–	–	O=C(O)CN(CCN(CC(=O)O)CC(=O)O)CC(=O)O [EDTA, ethylenediaminetetraacetic acid]	no effect on the growth	did not inhibit growth	no effect on the growth	did not inhibit growth	effect of metalloprotease inhibitor on the anti-fungal effect of the cyclic peptide [5]: enhanced

From patent publication US20230301895A1, “NAIL FORMULATIONS AND TREATMENT REGIMES” (NOVABIOTICS LIMITED, priority 2020, published 2023)
